This note sets out measurements from patent US20120010115A1, “PRESERVATIVE SYSTEM AND COMPOSITION BASED ON GLYCINATE AND DIHYDROXYPROPYL QUATERNARY AMMONIUM SALT COMBINATION” (CONOPCO, INC., D/B/A UNILEVER, priority 2010, published 2012).

This assay concerns Pseudomonas aeruginosa ATCC 9027. The experiment in a line: Challenge Test for the Evaluation of Preservative Capacity of Liquid Detergent and Personal Products. In kind it is cell-based. Conditions: aqueous formula, each active 5%, pH 7.6, inoculum 1.06E+07 (Log 7). Here is the method: Experiments were conducted to evaluate antimicrobial activity against Pseudomonas aeruginosa of aqueous formulas containing 2,3-dihydroxypropyl trimethyl ammonium chloride (Glyceryl Quat), sodium cocoyl glycinate and combinations of these two materials. Samples were prepared at room temperature by mixing together sodium cocoyl glycinate and/or Glyceryl Quat and water. The pH was adjusted by addition of aqueous hydrochloric acid to reach a 7.6 value. Amounts of each of the active components was 5%. Test Method: Challenge Test for the Evaluation of Preservative Capacity of Liquid Detergent and Personal Products Test Microorganism: Pseudomonas aeruginosa ATCC 9027 obtained from American Type Culture Collection, Manassas, Va. 20108. Procedure: 20 grams of product were inoculated with 0.2 ml of the microorganism at a level of 1.06E+07 or Log 7. A single inoculation was performed. At 2 day, 7 day, 14 day and 21 day time points after inoculation a 1 gram sample was aseptically removed into a neutralizing fluid (TAT Broth) and plated using Letheen Agar. The plates were incubated at 30° C. for 7 days. At the end of the incubation time the plates were removed and examined for microbial growth. Calculation of Log Reduction: The microorganisms recovered were converted into Log10 and compared to initial inoculum count which then determined the Log Reduction. Logarithmic functions are the inverse of exponential functions. Log reduction was determined by the initial inoculum count minus the counts at each sampling time point.

Take `C[N+](C)(C)CC(O)CO.[Cl-]` (centres unmarked) [Glyceryl Quat, 2,3-dihydroxypropyl trimethyl ammonium chloride]: the “Log Reduction Value” reads like this: (2 day after inoculation) 2.1; (7 day after inoculation) 1.5; (14 day after inoculation) 2.8; (21 day after inoculation) 3.4.
The matching figures for sodium cocoyl glycinate: 1.1, 1.1, 0.8 and 0.2.
